Laboratory results from patent US9079152B2, “Encapsulated essential oils” (BEN GURION UNIVERSITY OF THE NEGEV RESEARCH AND DEVELOPMENT …, priority 2004, dated 2015).

Test system: mosquito larvae
Assay: Comparison tests of cyromazine for larvicidal activity
Assay type: in vivo
Conditions: 0.5 g/m^2 of cyromazine; after 3 days
Method: Tests with cyromazine, an insect growth regulator produced by Novartis, was tested for larvicidal activity, either as such or in encapsulated form An effective concentration of 0.5 g/m^2 of cyromazine gave 60% mortality after 3 days, and the best sustained-release formulation gave. 100% mortality after 8 days.

## Nc1nc(N)nc(NC2CC2)n1 [cyromazine]
  mortality: 60%
